Laboratory results as given in patent publication US20060100195A1, “Remedies for urinary frequency” (priority 2001, published 2006).

Tests used:
[1] = tested on: pollakiuria model rats induced by acetic acid; test: Suppression of increase in urinary frequency in rats induced by acetic acid; type: in vivo, rat; details: awake rats; 10 mg/kg orally; dosed 2 days after 1% acetic acid into bladder; frequency within 6 hours
Protocol: (ii) Experiment of Suppression of an Increase in Urinary Frequency in Rats Induced by Acetic Acid
Abdomen of a rat was subjected to a midline incision under anesthetization with pentobarbital (50 mg/kg, i.p.) and bladder was exposed. Urine in the bladder was removed using a syringe equipped with an intraocular injection needle (30 G×¾). After that, 0.5 ml of 1% acetic acid solution was injected into the bladder using a syringe equipped with an intraocular injection needle (30 G×¾) and injury was closed.
With regard to measurement of urination of the animal, the animal was placed in a metabolism cage and urination was recorded with the lapse of time using a urination measuring apparatus (K. K. Neuroscience).
When acetic acid was injected into bladder of rat, urination frequency increased continuously and pollakiuria where each urinated amount decreased was induced. Each of the test drugs was evaluated using the stimulated bladder.
Evaluation of the test drug was conducted in such a manner that the test drug was administered after 2 days from injection of acetic acid into the bladder and suppressing rates for the frequency increased within 6 hours thereafter was compared. Suppressing rate (%) of frequency by each compound was determined by the following formula. […]

[2] = tested on: pollakiuria model rats induced by sulprostone; test: Suppression of increase in urinary frequency of rats induced by sulprostone; type: in vivo, rat; details: awake rats

## Cc1cc(Cl)ccc1S(=O)(=O)NC[C@H]1C2CCC(CC2)[C@@H]1/C=C\CCCC(=O)O [(1), 6-[(2S,3S)-3-(4-chloro-2-methylphenylsulfonyl-aminomethyl)bicyclo[2.2.2]octan-2-yl]-5Z-hexenoic acid]
[1]
  Inhibiting Rate (%) for Urinary Frequency, Acetic Acid-Induced Pollakiuria Model: 44.3 ± 12.4 %
[2]; 10 mg/kg orally, sulprostone 200 μg/kg s.c. 30 minutes later, frequency over 3 hours
  Inhibiting Rate (%) for Urinary Frequency, Sulprostone-Induced Pollakiuria Model: 58.0 ± 12.0 %

## Cl.O=C(CCc1ccncc1)NNC(=O)N1Cc2ccccc2Oc2ccc(Cl)cc21 [(2), 8-chlorodibenz[b,f][1.4]oxazepine-10(11H)-carboxylic acid.2-[1-oxo-3-(4-pyridinyl)propyl]hydrazide.monohydrochloride]
[2]; 10 mg/kg subcutaneously, frequency over 3 hours after sulprostone
  Inhibiting Rate (%) for Urinary Frequency, Sulprostone-Induced Pollakiuria Model: 38.2 ± 4.6 %

## CCN(Cc1cc(Cl)ccc1OCC(C)C)c1ccc(C(=O)NS(=O)(=O)c2c(C)noc2C)nn1 [(3), N-(3,5-dimethylisoxazol-4-ylsulfonyl)6-[N-(5-chloro-2-(isobutyloxy)benzyl)-N-ethylamino]pyridazine-3-carboxamide]
[2]; 3 mg/kg subcutaneously, frequency over 3 hours after sulprostone
  Inhibiting Rate (%) for Urinary Frequency, Sulprostone-Induced Pollakiuria Model: 49.2 ± 2.8 %
